# How the values were obtained:
# Human δ-opioid (DOP) = target: T1, Human δ-opioid (DOP) (Homo sapiens, UniProt P41143); assay: Radioligand binding, human δ-opioid (DOP) membranes, FlashPlate, [3H]-Bremazocine; details: compound at 10 μM; for A1 radioligand binding inhibition: human δ-opioid (DOP) membranes
# T1 construct: purchased Perkin Elmer Biosignal
# In short: (§1)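 Cloned human receptor membranes were coated onto FlashPlate wells and incubated with radioligand and compound (added from a 0.5 mM DMSO daughter plate) for 1 hour at room temperature in the dark. Scintillation counting gave percent inhibition, with DMSO defining total and reference ligand defining non-specific binding.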
# Human κ-Opioid (KOP) = target: T2, Human κ-Opioid (KOP) (Homo sapiens, UniProt P41145); assay: Radioligand binding, human κ-opioid (KOP) membranes, filtration, [3H]-Diprenorphine; details: compound at 10 μM; for A2 radioligand binding inhibition: human κ-opioid (KOP) membranes
# T2 construct: purchased Perkin Elmer Biosignal
# T2 sequence (P41145 whole entry): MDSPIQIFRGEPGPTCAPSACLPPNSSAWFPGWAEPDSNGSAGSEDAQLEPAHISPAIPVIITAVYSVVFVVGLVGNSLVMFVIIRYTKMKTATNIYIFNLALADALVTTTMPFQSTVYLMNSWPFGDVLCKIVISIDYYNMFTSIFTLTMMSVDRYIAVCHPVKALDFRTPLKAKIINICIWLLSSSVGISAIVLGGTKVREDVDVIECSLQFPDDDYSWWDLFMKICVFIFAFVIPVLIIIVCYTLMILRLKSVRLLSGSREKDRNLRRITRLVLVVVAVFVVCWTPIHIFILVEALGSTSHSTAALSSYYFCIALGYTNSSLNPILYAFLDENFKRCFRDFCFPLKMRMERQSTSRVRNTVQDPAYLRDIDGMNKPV
# In short: (§2)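 Filtration binding on cloned human receptor membranes (1 Unit/well), [125I]-Substance P for NK1 and [3H]-Diprenorphine for KOP, 1 h at room temperature. Filters PEI-presoaked, washed with cold 50 mM Tris-HCl pH 7.4, counted by scintillation; percent inhibition calculated, reference ligand defining non-specific binding.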
# Human Melanocortin (MC3) = target: T3, Human Melanocortin (MC3) (Homo sapiens, UniProt P41968); assay: Radioligand binding, human melanocortin MC3 membranes, FlashPlate, [125I]-NDP-αMSH; details: compound at 10 μM; for A3 radioligand binding inhibition: human melanocortin MC3 membranes
# T3 construct: purchased Perkin Elmer Biosignal
# T3 sequence (P41968 whole entry): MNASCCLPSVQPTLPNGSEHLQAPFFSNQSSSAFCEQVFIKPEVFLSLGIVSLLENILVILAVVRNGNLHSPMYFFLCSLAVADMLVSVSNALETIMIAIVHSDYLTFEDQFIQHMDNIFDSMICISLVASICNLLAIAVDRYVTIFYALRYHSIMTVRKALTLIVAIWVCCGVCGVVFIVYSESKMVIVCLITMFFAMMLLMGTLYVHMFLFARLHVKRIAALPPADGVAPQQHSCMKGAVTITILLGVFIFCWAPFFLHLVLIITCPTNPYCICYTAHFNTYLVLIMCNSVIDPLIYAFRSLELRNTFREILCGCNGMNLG
# In short: as §1
# Human Melanocortin (MC4) = target: T4, Human Melanocortin (MC4) (Homo sapiens, UniProt P32245); assay: Radioligand binding, human melanocortin MC4 membranes, FlashPlate, [125I]-NDP-αMSH; details: compound at 10 μM; for A4 radioligand binding inhibition: human melanocortin MC4 membranes
# T4 construct: purchased Perkin Elmer Biosignal
# T4 sequence (P32245 whole entry): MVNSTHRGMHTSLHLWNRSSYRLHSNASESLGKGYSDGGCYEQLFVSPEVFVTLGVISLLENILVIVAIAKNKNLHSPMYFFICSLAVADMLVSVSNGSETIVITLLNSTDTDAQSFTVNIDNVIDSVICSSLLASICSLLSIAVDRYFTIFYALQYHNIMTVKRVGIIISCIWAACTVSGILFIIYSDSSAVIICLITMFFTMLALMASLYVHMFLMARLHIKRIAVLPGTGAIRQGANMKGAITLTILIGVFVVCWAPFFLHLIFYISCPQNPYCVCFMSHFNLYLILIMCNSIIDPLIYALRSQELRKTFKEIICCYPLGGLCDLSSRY
# In short: as §1
# Human melanocortin (MC5) = target: T5, Human melanocortin (MC5) (Homo sapiens, UniProt P33032); assay: Radioligand binding, human melanocortin MC5 membranes, FlashPlate, [125I]-NDP-αMSH; details: compound at 10 μM; for A5 radioligand binding inhibition: human melanocortin MC5 membranes
# T5 construct: purchased Perkin Elmer Biosignal
# T5 sequence (P33032 whole entry): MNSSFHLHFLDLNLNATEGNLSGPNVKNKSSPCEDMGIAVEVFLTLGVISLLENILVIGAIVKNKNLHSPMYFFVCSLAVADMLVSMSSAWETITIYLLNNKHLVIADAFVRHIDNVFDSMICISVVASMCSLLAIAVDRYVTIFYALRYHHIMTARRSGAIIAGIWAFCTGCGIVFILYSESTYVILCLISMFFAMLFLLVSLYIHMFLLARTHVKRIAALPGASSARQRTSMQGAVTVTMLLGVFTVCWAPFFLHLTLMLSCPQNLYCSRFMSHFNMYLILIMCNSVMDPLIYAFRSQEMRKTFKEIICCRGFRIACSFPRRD
# In short: as §1
# [1] = target: T6, Human melanin-concentrating hormone (MCH1) (Homo sapiens, UniProt Q99705); assay: Radioligand binding, human melanin-concentrating hormone MCH1 membranes, FlashPlate, [125I]-S36057; details: compound at 10 μM; for A6 radioligand binding inhibition: human MCH1 membranes
# T6 construct: purchased Perkin Elmer Biosignal
# T6 sequence (Q99705 whole entry): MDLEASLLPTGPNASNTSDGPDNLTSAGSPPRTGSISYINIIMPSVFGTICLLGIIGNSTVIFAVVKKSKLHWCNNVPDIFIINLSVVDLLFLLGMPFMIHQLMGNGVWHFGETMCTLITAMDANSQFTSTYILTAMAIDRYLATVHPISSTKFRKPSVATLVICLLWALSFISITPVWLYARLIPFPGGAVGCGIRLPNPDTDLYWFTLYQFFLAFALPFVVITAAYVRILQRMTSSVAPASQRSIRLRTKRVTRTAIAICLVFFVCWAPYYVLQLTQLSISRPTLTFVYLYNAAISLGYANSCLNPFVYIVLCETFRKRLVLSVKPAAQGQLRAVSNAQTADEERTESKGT
# In short: as §1
# Human μ-opioid (MOP) = target: T7, Human μ-opioid (MOP) (Homo sapiens, UniProt P35372); assay: Radioligand binding, human μ-opioid (MOP) membranes, FlashPlate, [3H]-Naloxone; details: compound at 10 μM; for A7 radioligand binding inhibition: human μ-opioid (MOP) membranes
# T7 construct: purchased Perkin Elmer Biosignal
# T7 sequence (P35372 whole entry): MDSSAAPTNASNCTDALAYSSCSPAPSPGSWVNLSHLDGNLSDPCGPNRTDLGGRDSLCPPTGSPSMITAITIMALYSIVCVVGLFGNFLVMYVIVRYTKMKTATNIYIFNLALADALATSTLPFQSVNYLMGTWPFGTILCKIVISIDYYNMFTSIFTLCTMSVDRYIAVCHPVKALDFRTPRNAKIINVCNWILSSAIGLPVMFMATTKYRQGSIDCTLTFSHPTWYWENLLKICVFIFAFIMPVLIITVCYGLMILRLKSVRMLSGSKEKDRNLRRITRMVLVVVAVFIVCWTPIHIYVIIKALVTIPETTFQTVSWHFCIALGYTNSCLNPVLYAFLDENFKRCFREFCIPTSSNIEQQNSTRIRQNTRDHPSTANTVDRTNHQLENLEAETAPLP
# In short: as §1
# Human neurokinin (NK1) = target: T8, Human neurokinin (NK1) (Homo sapiens, UniProt P25103); assay: Radioligand binding, human neurokinin NK1 membranes, filtration, [125I]-Substance P; details: compound at 10 μM; for A8 radioligand binding inhibition: human neurokinin NK1 membranes
# T8 construct: purchased Perkin Elmer Biosignal
# T8 sequence (P25103 whole entry): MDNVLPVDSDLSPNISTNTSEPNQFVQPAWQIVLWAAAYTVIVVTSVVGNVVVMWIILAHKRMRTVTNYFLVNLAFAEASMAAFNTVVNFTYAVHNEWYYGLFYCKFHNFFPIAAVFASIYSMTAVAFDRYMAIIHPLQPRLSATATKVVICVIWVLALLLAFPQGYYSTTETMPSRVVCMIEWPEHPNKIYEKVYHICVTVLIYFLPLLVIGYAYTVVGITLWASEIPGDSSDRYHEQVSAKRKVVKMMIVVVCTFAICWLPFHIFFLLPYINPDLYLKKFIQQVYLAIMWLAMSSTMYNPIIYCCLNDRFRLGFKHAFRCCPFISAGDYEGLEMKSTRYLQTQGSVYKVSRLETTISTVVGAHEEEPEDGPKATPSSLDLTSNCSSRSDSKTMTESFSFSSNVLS
# In short: as §2
# [2] = target: T9, Human neuropeptide Y (NPY-Y1) (Homo sapiens, UniProt P25929); assay: Radioligand binding, human neuropeptide Y NPY-Y1 membranes, FlashPlate, [125I]-PYY; details: compound at 10 μM; for A9 radioligand binding inhibition: human NPY-Y1 membranes
# T9 construct: purchased Perkin Elmer Biosignal
# T9 sequence (P25929 1-384): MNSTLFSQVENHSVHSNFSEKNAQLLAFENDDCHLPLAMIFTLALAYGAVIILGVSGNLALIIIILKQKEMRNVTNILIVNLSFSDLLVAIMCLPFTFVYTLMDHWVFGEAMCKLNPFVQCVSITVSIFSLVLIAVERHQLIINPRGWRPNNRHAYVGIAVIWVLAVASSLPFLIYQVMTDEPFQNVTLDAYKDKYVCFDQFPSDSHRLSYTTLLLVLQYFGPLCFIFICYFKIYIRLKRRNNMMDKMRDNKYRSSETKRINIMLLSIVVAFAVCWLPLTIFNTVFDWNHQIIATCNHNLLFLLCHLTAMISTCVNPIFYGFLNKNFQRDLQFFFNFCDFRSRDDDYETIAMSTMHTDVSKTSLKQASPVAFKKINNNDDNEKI
# In short: as §1
# Human opioid (ORL1) = target: T10, Human opioid (ORL1) (Homo sapiens, UniProt P41146); assay: Radioligand binding, human opioid ORL1 membranes, FlashPlate, [125I]-Nociceptin; details: compound at 10 μM; for A10 radioligand binding inhibition: human ORL1 membranes
# T10 construct: purchased Perkin Elmer Biosignal
# T10 sequence (P41146 whole entry): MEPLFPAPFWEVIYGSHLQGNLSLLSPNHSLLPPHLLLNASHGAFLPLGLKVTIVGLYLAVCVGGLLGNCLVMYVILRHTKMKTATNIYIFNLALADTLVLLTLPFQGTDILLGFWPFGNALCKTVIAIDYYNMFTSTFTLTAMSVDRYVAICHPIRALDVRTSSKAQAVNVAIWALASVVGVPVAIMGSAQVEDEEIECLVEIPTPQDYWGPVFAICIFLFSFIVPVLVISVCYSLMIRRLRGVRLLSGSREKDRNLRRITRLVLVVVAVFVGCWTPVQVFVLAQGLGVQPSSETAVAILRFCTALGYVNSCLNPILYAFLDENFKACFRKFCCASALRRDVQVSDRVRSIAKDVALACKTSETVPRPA
# In short: as §1
# Mouse urotensin (mUR2) = target: T11, Mouse urotensin (mUR2) (Mus musculus, UniProt Q8VIH9); assay: Radioligand binding, mouse urotensin mUR2 membranes, FlashPlate, [125I]-Urotensin II; details: compound at 10 μM; for A11 radioligand binding inhibition: mouse urotensin mUR2 membranes
# T11 construct: purchased Perkin Elmer Biosignal
# T11 sequence (Q8VIH9 1-385): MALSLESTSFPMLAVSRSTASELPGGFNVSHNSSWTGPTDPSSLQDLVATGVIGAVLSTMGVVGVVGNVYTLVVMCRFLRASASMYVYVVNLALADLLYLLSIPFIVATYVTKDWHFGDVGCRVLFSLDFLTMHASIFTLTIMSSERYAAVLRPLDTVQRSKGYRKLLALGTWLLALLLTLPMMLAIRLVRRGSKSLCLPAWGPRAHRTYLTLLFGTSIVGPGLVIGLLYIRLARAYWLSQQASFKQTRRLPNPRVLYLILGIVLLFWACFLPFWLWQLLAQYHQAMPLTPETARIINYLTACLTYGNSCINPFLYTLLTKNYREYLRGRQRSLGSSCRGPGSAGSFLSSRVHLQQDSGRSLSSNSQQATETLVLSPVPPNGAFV
# In short: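 Cloned mouse urotensin (mUR2) receptor membranes from Perkin Elmer Biosignal were immobilized in FlashPlate microplates using a proprietary coating. Each well got 19.5 μl buffer, then 0.5 μl of DMSO, reference ligand, or compound. Adding 5 μl of [125I]-Urotensin II, diluted to 5× final concentration in binding buffer, started binding. Plates were sealed with TopSeal-A and incubated 1 hour at room temperature in the dark. Wells were counted for 30 seconds each on a TopCount after a 60-second delay, and percentage inhibition was calculated.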
# T1 sequence (P41143 whole entry): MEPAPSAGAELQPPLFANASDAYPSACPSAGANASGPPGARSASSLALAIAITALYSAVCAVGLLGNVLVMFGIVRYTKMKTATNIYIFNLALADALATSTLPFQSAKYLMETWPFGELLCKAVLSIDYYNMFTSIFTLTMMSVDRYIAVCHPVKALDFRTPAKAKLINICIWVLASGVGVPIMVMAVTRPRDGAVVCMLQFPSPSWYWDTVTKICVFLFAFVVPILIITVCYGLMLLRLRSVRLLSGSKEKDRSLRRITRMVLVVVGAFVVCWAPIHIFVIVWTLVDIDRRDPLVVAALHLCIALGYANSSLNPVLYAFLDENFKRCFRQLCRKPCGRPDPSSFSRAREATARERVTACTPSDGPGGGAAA
SMILES,A1 radioligand binding inhibition (Human δ-opioid (DOP)),A2 radioligand binding inhibition (Human κ-Opioid (KOP)),A3 radioligand binding inhibition (Human Melanocortin (MC3)),A4 radioligand binding inhibition (Human Melanocortin (MC4)),A5 radioligand binding inhibition (Human melanocortin (MC5)),A6 radioligand binding inhibition [1],A7 radioligand binding inhibition (Human μ-opioid (MOP)),A8 radioligand binding inhibition (Human neurokinin (NK1)),A9 radioligand binding inhibition [2],A10 radioligand binding inhibition (Human opioid (ORL1)),A11 radioligand binding inhibition (Mouse urotensin (mUR2)),other results
CSC1OC(COCc2ccc3ccccc3c2)C(O)C(OCc2ccccc2)C1NC(=O)CNC(=N)N (stereo not shown) [compound 260],,,,,,,,,,,,"A1: inhibition of radioligand binding (Human δ-opioid (DOP); [3H]-Bremazocine, FlashPlate): − (“−” indicates less than 50% inhibition at 10 μM); A2: inhibition of radioligand binding (Human κ-Opioid (KOP); [3H]-Diprenorphine, filtration): − (“−” indicates less than 50% inhibition at 10 μM); A3: inhibition of radioligand binding (Human Melanocortin (MC3); [125I]-NDP-αMSH, FlashPlate): − (“−” indicates less than 50% inhibition at 10 μM); A4: inhibition of radioligand binding (Human Melanocortin (MC4); [125I]-NDP-αMSH, FlashPlate): + (“+” indicates greater than 50% inhibition at 10 μM); A5: inhibition of radioligand binding (Human melanocortin (MC5); [125I]-NDP-αMSH, FlashPlate): − (“−” indicates less than 50% inhibition at 10 μM); A6: inhibition of radioligand binding ([1]; [125I]-S36057, FlashPlate): − (“−” indicates less than 50% inhibition at 10 μM); A7: inhibition of radioligand binding (Human μ-opioid (MOP); [3H]-Naloxone, FlashPlate): − (“−” indicates less than 50% inhibition at 10 μM); A8: inhibition of radioligand binding (Human neurokinin (NK1); [125I]-Substance P, filtration): − (“−” indicates less than 50% inhibition at 10 μM); A9: inhibition of radioligand binding ([2]; [125I]-PYY, FlashPlate): − (“−” indicates less than 50% inhibition at 10 μM); A10: inhibition of radioligand binding (Human opioid (ORL1); [125I]-Nociceptin, FlashPlate): − (“−” indicates less than 50% inhibition at 10 μM); A11: inhibition of radioligand binding (Mouse urotensin (mUR2); [125I]-Urotensin II, FlashPlate): − (“−” indicates less than 50% inhibition at 10 μM)"
COCC1OC(OCc2ccccc2)C(NC(=O)CN)C(OCc2ccc(-c3ccccc3)cc2)C1O (stereo not shown) [compound 182],,,,,,,,,,,,"A1 radioligand binding, percentage inhibition (Human δ-opioid (DOP); [3H]-Bremazocine): − (“−” indicates less than 50% inhibition at 10 μM); A2 radioligand binding, percentage inhibition (Human κ-Opioid (KOP); [3H]-Diprenorphine): − (“−” indicates less than 50% inhibition at 10 μM); A3 radioligand binding, percentage inhibition (Human Melanocortin (MC3); [125I]-NDP-αMSH): − (“−” indicates less than 50% inhibition at 10 μM); A4 radioligand binding, percentage inhibition (Human Melanocortin (MC4); [125I]-NDP-αMSH): − (“−” indicates less than 50% inhibition at 10 μM); A5 radioligand binding, percentage inhibition (Human melanocortin (MC5); [125I]-NDP-αMSH): − (“−” indicates less than 50% inhibition at 10 μM); A6 radioligand binding, percentage inhibition ([1]; [125I]-S36057): − (“−” indicates less than 50% inhibition at 10 μM); A7 radioligand binding, percentage inhibition (Human μ-opioid (MOP); [3H]-Naloxone): − (“−” indicates less than 50% inhibition at 10 μM); A8 radioligand binding, percentage inhibition (Human neurokinin (NK1); [125I]-Substance P): + (“+” indicates greater than 50% inhibition at 10 μM); A9 radioligand binding, percentage inhibition ([2]; [125I]-PYY): − (“−” indicates less than 50% inhibition at 10 μM); A10 radioligand binding, percentage inhibition (Human opioid (ORL1); [125I]-Nociceptin): − (“−” indicates less than 50% inhibition at 10 μM); A11 radioligand binding, percentage inhibition (Mouse urotensin (mUR2); [125I]-Urotensin II): − (“−” indicates less than 50% inhibition at 10 μM)"
CO[C@H]1[C@H](O)[C@@H](COCc2ccc3ccccc3c2)OC(OCc2ccc(-c3ccccc3)cc2)[C@@H]1NC(=O)CCCNC(=N)N (stereo partly shown) [compound 57],− (“−” indicates less than 50% inhibition at 10 μM),+ (“+” indicates greater than 50% inhibition at 10 μM),+ (“+” indicates greater than 50% inhibition at 10 μM),+ (“+” indicates greater than 50% inhibition at 10 μM),+ (“+” indicates greater than 50% inhibition at 10 μM),− (“−” indicates less than 50% inhibition at 10 μM),+ (“+” indicates greater than 50% inhibition at 10 μM),+ (“+” indicates greater than 50% inhibition at 10 μM),− (“−” indicates less than 50% inhibition at 10 μM),+ (“+” indicates greater than 50% inhibition at 10 μM),− (“−” indicates less than 50% inhibition at 10 μM),
CO[C@H]1[C@H](O)[C@@H](COCc2ccccc2)OC(OCc2ccc(-c3ccccc3)cc2)[C@@H]1NC(=O)CCCN (stereo partly shown) [compound 60],− (“−” indicates less than 50% inhibition at 10 μM),− (“−” indicates less than 50% inhibition at 10 μM),− (“−” indicates less than 50% inhibition at 10 μM),− (“−” indicates less than 50% inhibition at 10 μM),+ (“+” indicates greater than 50% inhibition at 10 μM),− (“−” indicates less than 50% inhibition at 10 μM),− (“−” indicates less than 50% inhibition at 10 μM),− (“−” indicates less than 50% inhibition at 10 μM),− (“−” indicates less than 50% inhibition at 10 μM),− (“−” indicates less than 50% inhibition at 10 μM),− (“−” indicates less than 50% inhibition at 10 μM),
CO[C@H]1[C@H](O)[C@@H](COCc2ccc(-c3ccccc3)cc2)OC(OCc2ccc3ccccc3c2)[C@@H]1NC(=O)CCCNC(=N)N (stereo partly shown) [compound 69],− (“−” indicates less than 50% inhibition at 10 μM),− (“−” indicates less than 50% inhibition at 10 μM),+ (“+” indicates greater than 50% inhibition at 10 μM),+ (“+” indicates greater than 50% inhibition at 10 μM),+ (“+” indicates greater than 50% inhibition at 10 μM),+ (“+” indicates greater than 50% inhibition at 10 μM),+ (“+” indicates greater than 50% inhibition at 10 μM),+ (“+” indicates greater than 50% inhibition at 10 μM),− (“−” indicates less than 50% inhibition at 10 μM),+ (“+” indicates greater than 50% inhibition at 10 μM),− (“−” indicates less than 50% inhibition at 10 μM),
